In patent US8901158B2, “Treatment of bipolar disorder” (Isis Innovation Ltd., priority 2011, dated 2014):

Assays:
[1] = molecular target: T1, human inositol monophosphatase (Homo sapiens, UniProt P29218); experiment: in vitro IMPase inhibition, malachite green phosphate assay; assay type: biochemical; conditions: for IC50: human IMPase, constant amount of inositol monophosphate
T1 construct: made in house; host or cells: E. coli BL21 (DE3) pLysS
T1 sequence (P29218 1-277): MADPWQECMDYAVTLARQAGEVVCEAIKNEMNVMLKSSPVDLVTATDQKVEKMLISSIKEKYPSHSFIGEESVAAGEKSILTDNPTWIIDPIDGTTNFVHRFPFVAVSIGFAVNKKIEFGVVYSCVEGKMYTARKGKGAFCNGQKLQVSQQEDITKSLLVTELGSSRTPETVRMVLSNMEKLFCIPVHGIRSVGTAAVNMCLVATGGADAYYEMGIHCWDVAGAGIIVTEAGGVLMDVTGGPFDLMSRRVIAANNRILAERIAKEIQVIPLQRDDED
Text: Human inositol monophosphatase cDNA was ordered from Geneservice, Source Bioscience, Cambridge, UK. The cDNA was inserted into plasmid pRSET5a, which was then transformed into JM109 competent cells. These cells were allowed to multiply and the plasmid was then extracted from the cells. The plasmid was then transformed into expression bacteria, E.coli strain BL21 (DE3) pLysS. […] The next day the cells were lysed and the soluble fraction, which contained the enzyme, was collected. Purification was carried out in 3 stages. The soluble fraction was heated at 68° C. for 1 hour and then centrifuged. The supernatant was taken and run through a Q-sepharose column (Pharmacia). Different fractions were collected and assessed for activity. The active fractions were then passed through a Tricorn MonoQ 5/50 GL column (GE Healthcare, UK) for further purification.
Each enzymatic reaction using human inositol monophosphatase contained 0.00013 mg of enzyme (0.0673 mg/mL). The substrate inositol monophosphate (Alexis Chemicals) was diluted with the appropriate buffer to make up a concentration of 50 mM stock. The stock was then diluted with buffer to yield the following concentrations of substrate: 0 mM, 0.1 mM, 0.5 mM, 1.0 mM, 1.5 mM, 2.5 mM, 5 mM, 10 mM, 20 mM, 25 mM and 30 mM. From this 2 μL of substrate was added to each reaction well giving a tenfold dilution of substrate to 0 mM, 0.01 mM, 0.05 mM, 0.1 mM, 0.15 mM, 0.25 mM, 0.5 mM, 1 mM, 2 mM, 2.5 mM and 3 mM. The reaction buffer contained 1 mM EGTA, 150 mM KCl, 3 mM MgCl2, 0.5 ng/mL BSA, 50 mM Tri, HCl, pH 7.4 and 0.01% Triton X100.
A malachite green assay was used for the quantitative determination of free inorganic phosphate present at the end of the IMPase reaction. This involved dissolving 4.2% w/v ammonium molybdate in 4M hydrochloric acid. The Malachite Green itself was made up to 0.045% w/v concentration. From these stocks, a 3:1 malachite green:ammonium molybdate mixture was prepared and vortexed for thirty minutes. The malachite green forms a complex of ammonium molybdate:malachite green:inorganic phosphate in the presence of free inorganic phosphate. To each reaction plate, duplicate wells of a range of known phosphate concentrations were prepared within the concentration range of 0-300 μM with each well containing 20 μL of solution. The phosphate standards were made from serial dilutions of 1M potassium dihydrogen phosphate using double distilled H2O. To each well was added 180 μL of malachite green:ammonium molybdate mix. The colour produced by the reaction between the inorganic phosphate and malachite green:ammonium molybdate was proportional to the amount of phosphate present. The colour was allowed to develop for 15 min and then the plate was read on a TECAN Sunrise microplate reader at 595 nm wavelength.
For the reactions whose results are shown in FIG. 2, lithium (Sigma) was dissolved in double-distilled H2O and diluted appropriately to the concentration of 10 mM with 2 μL of lithium being added per well to yield a final well concentration of 1 mM. Stock concentrations of lithium were also made from this. L690330 was purchased from Sigma Chemicals, and was made up to a 1 mM stock concentration using H2O. From this stock the following concentrations were prepared using serial dilutions with water: 300 μM to 30 nM. These concentrations were used to produce a concentration-inhibition curve for the enzyme. Ebselen was purchased from BioFocus as a 10 mM stock in DMSO. […]

[2] = tested on: mice; experiment: rearing experiments (infrared beam breaks, open-field test); assay type: in vivo, mouse; conditions: p=0.023 (FIG. 9)
Protocol: Rearing experiments were also carried out as follows. Mice were allowed to move freely within a caged equipped with infrared beam lines placed at two heights.
Mice could only break the upper beams by rearing.

[3] = tested on: rats; conditions: cited from earlier work
[4] = tested on: mice; experiment: rearing experiments with intracerebroventricular inositol; assay type: in vivo, mouse; conditions: ebselen 5 mg/kg i.p., after 60 minutes 5.5 μmol inositol intracerebroventricular (FIG. 10)
Protocol: In these rearing experiments, mice were given an intraperitoneal injection of control or ebselen (5 mg/kg), and after 60 minutes were given an intracerebroventricular injection of control or 5.5 μmol inositol.

[5] = tested on: inositol monophosphatase; experiment: mouse ex vivo assay of IMPase activity in brain homogenate; conditions: 5 mg/kg i.p., CD1 male mice, 1 hour (FIG. 5)
Protocol: To determine the bio-availability of ebselen, a mouse ex vivo assay was used. In this assay mice were given an intraperitoneal (i.p.) injection of 5 mg/kg ebselen solublized in betacyclodextrin, according to the following procedure. A stock solution of 0.5 M ebselen in DMSO and a stock of 40% 2-Hydroxy propyl-beta-cyclodextrin (HPBCD) were made. A 3.5 mM solution of ebselen (from 0.5 M stock) was made into 40% HPBCD and finally, to obtain the concentration of 350 μM ebselen, a 1 in 10 dilution was carried out. A control solution was made containing the same dilution of DMSO and HPBCD. The volume of drug/vehicle injected i.p. into the mouse was 1 ml (for the animals dosed with ebselen this is approximately 5 mg/kg assuming each mouse weighs about 20 g). CD1 male mice, weighing approximately 20 g were used. The animals were dosed for one hour with either drug or vehicle before being killed by cervical dislocation. The brains were quickly dissected out and frozen in liquid nitrogen. […]
The protein concentration of each brain homogenate was determined and a stock of 2.5 mg of protein was made from the homogenate and stored. […] The intensity of the green color formed was measured at 595 nm.

[6] = tested on: inositol levels in mice brains; experiment: ex vivo inositol levels in mice brains by 1H NMR; design: species or system mouse; conditions: 1 hour after intraperitoneal injection, p<0.001 (FIG. 6)
Protocol: Similar conclusions can be reached from the results shown in FIG. 6, in which inositol levels in mice brains were measured ex vivo using ^1H NMR spectroscopy. The results were obtained from brains removed from mice 1 hour after intraperitoneal injection either with ebselen or with a control.

[7] = tested on: mice; experiment: amphetamine-induced hyperactivity (animal model of mania); assay type: in vivo, mouse; conditions: ebselen i.p., d-amphetamine 4 mg/kg after 60 minutes, 60 to 120 minutes, p<0.001 (FIGS. 7, 8)
Protocol: Activity and monitoring evaluation of mice was also studied. Mice were given an i.p. injection with saline (control) or ebselen (1, 5 or 10 mg/kg) and placed in a 35×35 cm perspex arena where their location was recorded by the Ethovision videotracking system (Noldus, Wageningen, The Netherlands). After 60 minutes, the mice were injected with d-amphetamine (4 mg/kg) or control. The Ethovision system follows the centre of the body of the mouse and records its position according to the location of this point. Data analysis was performed by Ethovision software, and distances moved within each 5 minute interval were calculated and plotted. The total distance moved was computed for the time frame from 60 to 120 minutes following the beginning of data acquisition. Amphetamine-induced hyperactivity is used as an animal model of mania, and is sensitive to mood-stabilising drugs such as lithium.

[8] = molecular target: T2, bovine IMPase (Bos taurus, UniProt P20456); conditions: reported value; cited from earlier work
T2 sequence (P20456 1-277): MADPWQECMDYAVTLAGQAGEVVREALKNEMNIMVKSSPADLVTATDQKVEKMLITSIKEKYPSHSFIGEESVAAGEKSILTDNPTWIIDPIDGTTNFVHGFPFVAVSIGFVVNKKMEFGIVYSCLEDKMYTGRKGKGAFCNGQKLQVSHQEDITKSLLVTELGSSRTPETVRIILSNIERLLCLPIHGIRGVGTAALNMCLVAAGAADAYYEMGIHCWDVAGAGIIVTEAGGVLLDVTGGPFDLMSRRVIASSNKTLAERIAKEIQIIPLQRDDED

Compound	in vitro inhibition of IMPase ([1]; 30 μM compound (FIG. 4))	IC50 [1] [nM]	mode of inhibition ([1]; purified human IMPase, various ebselen and substrate concentrations (FIG. 3))	number of beam breaks (rearing) during the open-field test [2]	LD50 [3]	effects of ebselen on suppressing rearing behaviour after inositol injection [4]	amount of phosphate detected (IMPase activity in brain homogenate) compared to the control [5]	inositol levels in the brain versus control [6]	level of amphetamine-induced hyperactivity [7]	IC50 [8] [nM]
O=c1c2ccccc2sn1-c1ccccc1 [2-phenyl-1,2-benzisothiazol-3(2H)-one]	inhibition of IMPase is also achieved	35000	–	–	–	–	–	–	–	–
O=c1c2ccccc2[se]n1-c1ccccc1 [Ebselen, 2-phenyl-1,2-benzisoselenazol-3(2H)-one]	–	~2000	non-competitive mode of inhibition	significantly reduced	greater than 1000 mg/kg	significantly reduced	significantly lower	significantly lower	reduced level of amphetamine-induced hyperactivity	–
CC(Oc1ccc(O)cc1)(P(=O)(O)O)P(=O)(O)O [L690330]	–	1500	–	–	–	–	–	–	–	~300
